Where a SMILES comes first, the peptide text is derived from it. Bridges are numbered along the chain shown (N, C = ends).
Columns and labels:
human SSTR4 = target: T1, human SSTR4 (Homo sapiens, UniProt P31391); assay: [125I]-somatostatin binding inhibition, SSTR4 CHO cell membrane fraction; details: 25° C., 60 minutes
T1 construct: expressed in transfected cells; host or cells: CHO(dhfr-) cells, clone SSTR4-1-2, plasmid pA-1-11-SSTR4 (vector pAKKO-111)
Procedure: CHO(dhfr^−) cells (1×10^6 cells) were cultured on HAM F12 medium containing 10% fetal bovine serum in a dish with a diameter of 8 cm for 24 hours. Into these cells was introduced 10 μg of the human SSTR4 DNA expression plasmid pA-1-11-SSTR4 obtained as described above in (2) by the calcium phosphate method (Cell Phect Transfection Kit; Pharmacia). At 24 hours after transfection, the medium was exchanged for DMEM containing 10% dialyzed fetal bovine serum, and cells forming a colony on this medium (namely DHFR^+ cells) were selected. Further, the cells selected were treated by the limiting dilution method for cloning from a single cell, and the cells thus cloned were measured for their somatostatin receptor protein expression ability by the binding assay described in Reference Example 1 (3). In this manner, a cell line with high somatostatin-binding activity, SSTR4-1-2, was selected.
The human somatostatin receptor expressing CHO cell lines SSTR1-8-3, SSTR2-HS5-9, SSTR3-15-19, SSTR4-1-2 and SSTR5-32-4 (10^9 cells each) were respectively suspended in phosphate buffered physiological saline supplemented with 5 mM EDTA (PBS-EDTA) and centrifuged. To each cell pellet was added 10 ml of cell homogenation buffer (10 mM NaHCO3, 5 mM EDTA, pH=7.5), followed by homogenation with a Polytron homogenizer. The homogenate was centrifuged at 400×g for 15 minutes, and the supernatant obtained was further centrifuged at 100,000×g for 1 hour to give a membrane fraction as a precipitate. […]
The membrane fractions prepared in Reference Example 6 were each diluted to 3 μg/ml with assay buffer. […] After filtration, the radioactivity of [^125I]-somatostatin remaining on the filter paper was measured. For each test substance, the binding inhibition percentage (%) was calculated according to the formula: PBM=(B−NSB)/(B0−NSB)×100 (where PBM: percent maximum binding; B: radioactivity when the test sample is added; B0: maximum bound radioactivity; NSB: non-specifically bound radioactivity). […]

human SSTR3 = target: T2, human SSTR3 (Homo sapiens, UniProt P32745); assay: cAMP accumulation inhibiting activity in SSTR3 expressing CHO cells (forskolin stimulated); format: cell-based; details: forskolin 10 μM, CHO cells SSTR3-15-19; read-out: ED50, inhibition of intracellular cAMP accumulation, SSTR3
T2 construct: expressed in transfected cells; host or cells: CHO(dhfr-) cells, clone SSTR3-15-19, plasmid pA-1-11-SSTR3 (vector pAKKO-111)
T2 sequence (P32745 whole entry): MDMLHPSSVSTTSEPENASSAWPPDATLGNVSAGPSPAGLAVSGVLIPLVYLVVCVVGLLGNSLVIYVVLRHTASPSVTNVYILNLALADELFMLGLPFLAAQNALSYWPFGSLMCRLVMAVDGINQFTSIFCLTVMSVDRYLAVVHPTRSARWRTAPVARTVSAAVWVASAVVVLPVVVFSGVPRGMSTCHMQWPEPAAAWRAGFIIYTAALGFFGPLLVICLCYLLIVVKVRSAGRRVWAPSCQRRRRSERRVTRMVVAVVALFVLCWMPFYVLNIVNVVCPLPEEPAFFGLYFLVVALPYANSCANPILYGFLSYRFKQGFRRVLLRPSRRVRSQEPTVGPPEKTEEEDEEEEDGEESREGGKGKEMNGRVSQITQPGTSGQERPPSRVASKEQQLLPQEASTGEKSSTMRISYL
Procedure: For measuring the intracellular accumulations of cyclic adenosine 3′,5′-monophosphate (cAMP), the human somatostatin receptor expressing cell lines SSTR2-HS5-9, SSTR3-15-19, SSTR4-1-2 and SSTR5-32-4 respectively described in Reference Example 2 (3), Reference Example 3 (3), Reference Example 4 (3) and Reference Example 5 (3) were multiplied on 24-well plates until confluency. Said cells were washed with two 1-ml portions of medium A [Dulbecco-'s modified Eagle's medium (DMEM), 20 mM 2-[4-(2-hydroxyethyl)-1-piperazinyl]ethanesulfonic acid (HEPES) (pH. 7.5), 0.2% BSA, 0.2 mM 3-isobutyl-1-methylxanthine (IBMX)] and then 400 μl of medium A was added to each well and incubation was carried out at 37° C. for 1 hour. To each well were added 50 μl of a hCS-15 or hCS-17 solution (each diluted to a concentration 10 times the final concentration with medium A) and 50 μl of a forskolin solution (final concentration: 10 μM), and incubation was carried out at 37° C. for 30 minutes. The cells were washed with two 1-ml portions of medium A and then 500 μl of medium A and 100 μL of 20% aqueous perchloric acid solution were added to each well, followed by standing at 4° C. for 20 minutes for cell lysis. […] The amount of cAMP contained in this extract was determined using an Amersham's kit (cAMP EIA system).

T1 sequence (P31391 whole entry): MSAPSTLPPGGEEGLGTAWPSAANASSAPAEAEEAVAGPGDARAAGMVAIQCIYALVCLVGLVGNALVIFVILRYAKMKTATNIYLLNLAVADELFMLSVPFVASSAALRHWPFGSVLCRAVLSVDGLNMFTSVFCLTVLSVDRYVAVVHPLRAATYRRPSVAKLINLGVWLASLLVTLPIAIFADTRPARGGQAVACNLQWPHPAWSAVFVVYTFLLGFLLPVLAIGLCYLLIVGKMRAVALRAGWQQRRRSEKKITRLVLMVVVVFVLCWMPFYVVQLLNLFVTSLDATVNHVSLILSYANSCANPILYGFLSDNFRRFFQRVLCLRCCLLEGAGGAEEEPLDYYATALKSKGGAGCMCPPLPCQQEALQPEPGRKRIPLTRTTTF

SMILES	IC50 (human SSTR4) [nM]	EC50 (human SSTR3) [nM]
CSCC[C@H](N)C(=O)N1CCC[C@H]1C(=O)N[C@H]1CSSC[C@@H](C(=O)N[C@@H](CCCCN)C(=O)O)NC(=O)[C@H](CO)NC(=O)[C@H](CO)NC(=O)[C@H](Cc2ccccc2)NC(=O)[C@H]([C@@H](C)O)NC(=O)[C@H](CCCCN)NC(=O)[C@H](Cc2c[nH]c3ccccc23)NC(=O)[C@H](Cc2ccccc2)NC(=O)[C@H](Cc2ccccc2)NC(=O)[C@H](CC(N)=O)NC(=O)[C@H](CCCNC(=N)N)NC1=O [hCS-15] (H-MPCRNFFWKTFSSCK-OH; disulfide 3-14; N-terminus and C-terminus assumed)	0.6	1
CSCC[C@H](NC(=O)[C@H](CCCNC(=N)N)NC(=O)[C@@H](N)CC(=O)O)C(=O)N1CCC[C@H]1C(=O)N[C@H]1CSSC[C@@H](C(=O)N[C@@H](CCCCN)C(=O)O)NC(=O)[C@H](CO)NC(=O)[C@H](CO)NC(=O)[C@H](Cc2ccccc2)NC(=O)[C@H]([C@@H](C)O)NC(=O)[C@H](CCCCN)NC(=O)[C@H](Cc2c[nH]c3ccccc23)NC(=O)[C@H](Cc2ccccc2)NC(=O)[C@H](Cc2ccccc2)NC(=O)[C@H](CC(N)=O)NC(=O)[C@H](CCCNC(=N)N)NC1=O [hCS-17]	0.5	1
